Reference: the supplement of paper PMC10307832

Tests used:
Assay in all cases: relative viability (nuclei count vs DMSO), 5 days (fraction); higher = more cells survive
Vemurafenib = compound: CCCS(=O)(=O)Nc1ccc(F)c(C(=O)c2c[nH]c3ncc(-c4ccc(Cl)cc4)cc23)c1F [Vemurafenib]
Summary of the method: (§1)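 Acceptance criteria were a control CV below 25% and at least one doubling per plate. Lung cancer cell lines in 1536-well plates got five library-drug doses (not always all listed) √10 apart by pinning and were left 5 days with no medium change. Viability divides treated-well nuclei by vehicle-well nuclei and is the median across plates. Nuclei were counted by MetaXpress from 4× Hoechst images.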

Alpelisib = compound: Cc1nc(NC(=O)N2CCC[C@H]2C(N)=O)sc1-c1ccnc(C(C)(C)C(F)(F)F)c1 [Alpelisib]
Summary of the method: as §1

OSI-027 = compound: COc1cccc2cc(-c3nc([C@H]4CC[C@H](C(=O)O)CC4)n4ncnc(N)c34)[nH]c12 [OSI-027]
Summary of the method: as §1

Vemurafenib + Lapatinib = compound: CCCS(=O)(=O)Nc1ccc(F)c(C(=O)c2c[nH]c3ncc(-c4ccc(Cl)cc4)cc23)c1F [Vemurafenib] + CS(=O)(=O)CCNCc1ccc(-c2ccc3ncnc(Nc4ccc(OCc5cccc(F)c5)c(Cl)c4)c3c2)o1 [Lapatinib] (partner 2 µM)
Summary of the method: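 Relative viability was taken as the ratio of nuclei in treated wells to nuclei in vehicle wells. Lung cancer cell lines in 1536-well plates received compounds by pin tool one day after seeding, either one drug alone or a fixed anchor-drug dose plus five library-drug doses (not always all listed) in √10 steps. Nuclei were counted on 4× images after 5 days of treatment, and values are medians of duplicate plates.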

| Cell Line | relative viability (Vemurafenib; 0.03162 µM) | relative viability (Vemurafenib; 0.3162 µM) | relative viability (Vemurafenib; 1 µM) | relative viability (Alpelisib; 0.04 µM) | relative viability (Alpelisib; 0.1265 µM) | relative viability (Alpelisib; 0.4 µM) | relative viability (Alpelisib; 1.265 µM) | relative viability (Alpelisib; 2 µM, anchor plate) | relative viability (Alpelisib; 4 µM) | relative viability (OSI-027; 0.01 µM) | relative viability (OSI-027; 0.03162 µM) | relative viability (OSI-027; 0.1 µM) | relative viability (OSI-027; 0.3162 µM) | relative viability (OSI-027; 0.5 µM, anchor plate) | relative viability (OSI-027; 1 µM) | relative viability (Vemurafenib + Lapatinib; first compound 0.03162 µM) | relative viability (Vemurafenib + Lapatinib; first compound 0.3162 µM) | relative viability (Vemurafenib + Lapatinib; first compound 1 µM) | relative viability (Vemurafenib; 0.1 µM) | relative viability (Vemurafenib + Lapatinib; first compound 0.1 µM) |
| --- | --- | --- | --- | --- | --- | --- | --- | --- | --- | --- | --- | --- | --- | --- | --- | --- | --- | --- | --- | --- |
| HCC-827 | 1.05 | 0.95 | 1.07 | 1.02 | 0.935 | 1.05 | 0.981 | 0.945 | 1 | 1.08 | 1.02 | 1.04 | 1.04 | 0.792 | 0.956 | 0.209 | 0.22 | 0.191 | – | – |
| NCI-H2085 | 0.89 | 0.805 | 1.02 | 0.988 | 0.943 | 1.01 | 0.93 | 0.984 | 0.889 | 0.962 | 0.967 | 0.928 | 0.926 | 0.789 | 0.658 | 0.729 | 0.766 | 0.695 | 0.885 | 0.778 |
| NCI-H1755 | 0.958 | 0.823 | 0.957 | 0.989 | 1.01 | 0.986 | 0.876 | 0.942 | 0.853 | 0.983 | 0.921 | 0.988 | 0.898 | 0.745 | 0.78 | 0.925 | 0.777 | 0.988 | 0.969 | 1.02 |
| LCLC-103H | 0.958 | 0.91 | 0.883 | 0.972 | 0.956 | 0.959 | 0.779 | 0.969 | 0.749 | 1.03 | 1.02 | 0.903 | 0.871 | 0.473 | 0.749 | – | – | – | 0.952 | – |
| SW 900 | 0.69 | 0.808 | 0.756 | 0.944 | 0.7 | 1 | 0.789 | – | 0.651 | 0.618 | 0.925 | 0.744 | 0.812 | 0.627 | 0.47 | – | – | – | 0.843 | – |
| NCI-H1623 | 0.977 | 1.23 | 0.99 | 0.853 | 0.893 | 1.07 | 0.629 | – | 0.631 | 1.1 | 0.912 | 1.02 | 0.77 | 0.433 | 0.427 | – | – | – | – | – |
| NCI-H441 | 0.899 | 0.787 | 0.931 | 1.1 | 0.95 | 1.01 | 0.605 | 0.766 | 0.662 | 1.19 | 1.05 | 0.984 | 0.963 | 0.636 | 0.474 | – | – | – | 0.963 | – |
| ChaGo-K-1 | 0.958 | 0.863 | 1.01 | 0.973 | 0.875 | 1.02 | 0.871 | – | 0.75 | 0.989 | 0.91 | 0.959 | 0.9 | 0.63 | 0.859 | – | – | – | 1.02 | – |
| NCI-H522 | 0.913 | 0.852 | 0.867 | 0.939 | 0.903 | 0.923 | 0.807 | – | 0.736 | 1 | 1.03 | 0.819 | 0.767 | 0.745 | 0.77 | – | – | – | 0.959 | – |
| NCI-H1648 | 0.819 | 1.4 | 0.833 | 0.712 | 0.986 | 0.778 | 0.576 | – | 0.257 | 0.868 | 0.602 | 0.683 | 0.724 | 0.266 | 0.532 | – | – | – | 0.717 | – |
